Where two headings read alike, the source gives them in different places. Each block holds one compound with its values, some of them ahead of it.
Columns and labels:
[1] = biological target: T1, purified recombinant human HSF1 (HSF1 DNA binding domain) (Homo sapiens, UniProt Q00613); assay: Melting temperature of HSF1 DBD with HSF1 degrader compounds (Sypro orange); conditions: read-out: ΔTm (° C.)
T1 sequence (Q00613 15-120): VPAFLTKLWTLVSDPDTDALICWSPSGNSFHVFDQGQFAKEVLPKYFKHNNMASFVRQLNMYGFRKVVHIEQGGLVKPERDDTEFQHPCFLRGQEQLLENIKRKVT
Method: The melting temperature (ΔTm) for purified recombinant human HSF1 (HSF1 DNA binding domain) was determined in the presence of HSF1 degrader compounds shown in Table 5 and compared to the solvent DMSO. Sypro orange dye was added to the HSF1 DBD (5 micromolar final concentration) in buffer, mixed and distributed to wells in 384 well microtiter plates. HSF1 degrader compound (12.5 micromolar) or DMSO solvent was added to three replicate wells per compound concentration, mixed and plates loaded into a Quant Studio thermnocycler and run on a temperature gradient from 25° C. to 85° C. with increments of 0.5° C. steps. Melting curves were obtained and analyzed using the ThermnoFisher Shift Software 1.4 fitted with a Boltzmann equation to determine the change in melting temperature of the protein in the presence of DMSO as compared to compound. The difference in the melting temperature under these two conditions was assigned as the change in melting temperature of ΔTm.

[2] = test system: C4-2 prostate cancer cells; assay: C4-2 cell proliferation, Cell Titre Glo; format: cell-based; conditions: Homo sapiens, 48-hour period, 9-point dilution series, read-out: Cell Viability IC50
Method: Next, cell viability of C4-2 prostate cancer cells was determined. C4-2 prostate cancer cells were grown in RMPI-1640 (no L-glutamine, Gibco 21870076) supplemented with 10% fetal bovine […] (non-heat-inactivated, Cytiva Hyclone SH30071.03). […] A 9-point dilution series was used to assess the ability of each compound to inhibit the growth of C4-2 prostate cancer cells over a 48-hour period, as compared to negative control solvent, DMSO. Cell proliferation was measured by the Cell Titre Glo assay using 384 well microtiter plate reader to quantitate luminescence. The IC50 was determined from the values obtained.

DNAJB1 equals Hsp40 = assay: HSF1 target gene transcript expression qPCR in C4-2 cells, Hsp40; format: cell-based; conditions: Homo sapiens, 2 hours then SNX-2112 (100 nM) 5 hr, vs GAPDH and DMSO
Method: (§1) Next, the change in heat shock protein gene expression in C4-2 prostate cancer cells was determined. C4-2 prostate cancer cells were grown in RMPI-1640 (no L-glutamine, Gibco 21870076) supplemented with 10% fetal bovine […] (non-heat-inactivated, Cytiva Hyclone SH30071.03). To quantitatively measure the inhibition of HSF1 activity in C4-2 prostate cancer cells, compounds or DMSO were added to triplicate C4-2 cell cultures for 2 hours. HSF1 activity was then stimulated with the Hsp90 inhibitor SNX-2112 (100 nM) for an additional 5 hr at 37° C. in the presence of HSF1 degrader compounds or DMSO. Total RNA was extracted, converted to cDNA and used in qPCR assays to quantify the change in HSF1 target gene transcript expression (HSPA4L equals Hsp70, HSPB1 equals Hsp27 and DNAJB1 equals Hsp40) as compared to GAPDH internal control gene, and then compared to DMSO negative control.

Hsp70 = assay: HSF1 target gene transcript expression qPCR in C4-2 cells, Hsp70; format: cell-based; conditions: Homo sapiens, 2 hours then SNX-2112 (100 nM) 5 hr, vs GAPDH and DMSO
Method: as §1

[3] = biological target: T2, recombinant HSF1 DNA-binding domain (DBD) (Homo sapiens, UniProt Q00613); assay: Differential Scanning Fluorimetry (DSF), HSF1 DBD melting temperature; conditions: Table 3; 5 μM HSF1 DBD, 25PM Compound; positive = stabilizes, negative = destabilizes HSF1
T2 sequence (Q00613 15-120): T1 sequence (Q00613 15-120)

[4] = Rat liver microsome stability; format: in vitro ADME; conditions: rat liver microsomes, 37° C., read-out: Microsome Stability T1/2
Method: Next, the microsome stability in rats was determined for select compounds from Table 5. Test compounds are incubated with rat liver microsomes supplemented with co-factors at 37° C. Typical conditions were a compound concentration of 1 μM and 5 sampling time-points (0, 5, 15, 30 and 45 minutes), in duplicate. At each time-point, the reactions were terminated by the addition of organic solvent. The samples were centrifuged and the parent compound concentration was evaluated by LC-MS/MS measurements. Control compounds were included with well-established stability when incubated with rat microsomes. Multiple time points were used to determine % parent compound remaining at each time point and to calculate the Tiu2 for each compound in rat liver microsomes. A higher T1/2 indicates increased compound stability in microsomes.

[5] = 12.5 micromolar compound, 5 micromolar HSF1 DBD, compared to DMSO

SMILES: N#Cc1ccc(NC(=O)Nc2ccc(Cl)c(S(=O)(=O)C(F)(F)F)c2)cc1OCCN1CCOCC1 [Compound 293, 1-(4-chloro-3-((trifluoromethyl)sulfonyl)phenyl)-3-(4-cyano-3-(2-morpholinoethoxy)phenyl)urea]
ΔTm at 25 µM [3]: -4.19 °C | ΔTm at 12.5 µM [1]: 1.13 °C | IC50 [2]: 6.05 µM

SMILES: CN(C)CCc1cc(NC(=O)Nc2ccc3c(c2)S(=O)(=O)C=C3)ccc1C#N [Compound 290, 1-(4-cyano-3-(2-(dimethylamino)ethyl)phenyl)-3-(1,1-dioxidobenzo[b]thiophen-6-yl)urea]
ΔTm at 25 µM [3]: 3.28 °C | ΔTm at 12.5 µM [1]: -0.3 °C | IC50 [2]: > 10 µM

SMILES: N#Cc1ccc(NC(=O)Nc2ccc3c(c2)S(=O)(=O)C=C3)cc1CN1CCOCC1 [Compound 291, 1-(4-cyano-3-(morpholinomethyl)phenyl)-3-(1,1-dioxidobenzo[b]thiophen-6-yl)urea]
ΔTm at 25 µM [3]: -4.4 °C | ΔTm at 12.5 µM [1]: -0.44 °C | IC50 [2]: > 10 µM

SMILES: N#Cc1ccc(NC(=O)Nc2ccc(Cl)c(S(=O)(=O)C(F)(F)F)c2)cc1CCN1CCOCC1 [Compound 286, 1-(4-chloro-3-((trifluoromethyl)sulfonyl)phenyl)-3-(4-cyano-3-(2-morpholinoethyl)phenyl)urea]
ΔTm at 25 µM [3]: -6.23 °C | ΔTm at 12.5 µM [1]: 1.64 °C | IC50 [2]: 5.95 µM

SMILES: N#Cc1ccc(NC(=O)Nc2ccc(CN3CCOCC3)c(S(=O)(=O)C(F)(F)F)c2)cc1 [Compound 288, 1-(4-cyanophenyl)-3-(4-(morpholinomethyl)-3-((trifluoromethyl)sulfonyl)phenyl)urea]
ΔTm at 25 µM [3]: 3.27 °C | ΔTm at 12.5 µM [1]: 2.24 °C | IC50 [2]: 8.9 µM

SMILES: N#Cc1ccc(NC(=O)Nc2ccc3c(c2)S(=O)(=O)C=C3)cc1CCN1CCOCC1 [Compound 292, 1-(4-cyano-3-(2-morpholinoethyl)phenyl)-3-(1,1-dioxidobenzo[b]thiophen-6-yl)urea]
ΔTm at 25 µM [3]: 3.33 °C | ΔTm at 12.5 µM [1]: -0.76 °C | IC50 [2]: > 10 µM

SMILES: N#Cc1ccc(NC(=O)Nc2ccc(Cl)c(S(=O)(=O)C(F)(F)F)c2)cc1CN1CCOCC1 [Compound 285, 1-(4-chloro-3-((trifluoromethyl)sulfonyl)phenyl)-3-(4-cyano-3-(morpholinomethyl)phenyl)urea]
ΔTm at 25 µM [3]: -7.52 °C | ΔTm at 12.5 µM [1]: 1.23 °C | IC50 [2]: 4.81 µM

SMILES: CN(C)CCc1cc(C#N)ccc1NC(=O)Nc1ccc(Cl)c(S(=O)(=O)C(F)(F)F)c1 [Compound 296, 1-(4-chloro-3-((trifluoromethyl)sulfonyl)phenyl)-3-(4-cyano-2-(2-(dimethylamino)ethyl)phenyl)urea]
ΔTm at 25 µM [3]: -5.21 °C | ΔTm at 12.5 µM [1]: 0.43 °C | IC50 [2]: > 10 µM

SMILES: N#Cc1ccc(NC(=O)Nc2ccc(OCCN3CCOCC3)c(S(=O)(=O)C(F)(F)F)c2)cc1 [Compound 294, 1-(4-cyanophenyl)-3-(4-(2-morpholinoethoxy)-3-((trifluoromethyl)sulfonyl)phenyl)urea]
ΔTm at 25 µM [3]: -9.02 °C | ΔTm at 12.5 µM [1]: 2.24 °C | IC50 [2]: 9.82 µM

SMILES: N#CC1CCC(NC(=O)Nc2ccc(Cl)c(C(F)(F)F)c2)CC1 (stereo not drawn) [Compound 300, 1-(4-chloro-3-(trifluoromethyl)phenyl)-3-(4-cyanocyclohexyl)urea]
ΔTm at 12.5 µM [1]: -0.73 °C | IC50 [2]: > 10 µM

SMILES: N#Cc1ccc(NC(=O)Nc2ccc3c(c2)S(=O)(=O)C=C3)cc1C(F)(F)F [Compound 256, 1-(4-cyano-3-(trifluoromethyl)phenyl)-3-(1,1-dioxidobenzo[b]thiophen-6-yl)urea]
ΔTm at 12.5 µM [1, 5]: 1.9 °C | IC50 [2]: 3.47 µM | half-life at 1 μM [4]: 1.23 h

Second part, led by results:

ΔTm at 12.5 µM [1, 5]: 2.8 °C | IC50 [2]: 2.4 µM
SMILES: COc1cc(NC(=O)Nc2ccc(Cl)c(C(F)(F)F)c2)ccc1C#N [Compound 247, 1-(4-chloro-3-(trifluoromethyl)phenyl)-3-(4-cyano-3-methoxyphenyl)urea]
mrna remaining at 10 µM (DNAJB1 equals Hsp40): 73% | mrna remaining at 10 µM (Hsp70): 63%

ΔTm at 25 µM [3]: 2.08 °C | ΔTm at 12.5 µM [1, 5]: 1.1 °C | IC50 [2]: > 10 µM
SMILES: N#Cc1ccc(NC(=O)Nc2ccc(Cl)c(S(=O)(=O)C(F)(F)F)c2)c(CN2CCOCC2)c1 [Compound 297, 1-(4-chloro-3-((trifluoromethyl)sulfonyl)phenyl)-3-(4-cyano-2-(morpholinomethyl)phenyl)urea]

ΔTm at 12.5 µM [1, 5]: 2.74 °C | IC50 [2]: > 10 µM
SMILES: N#Cc1ccc(NC(=O)Nc2ccc3nsnc3c2)cc1 [Compound 245, 1-(benzo[c][1,2,5]thiadiazol-5-yl)-3-(4-cyanophenyl)urea]
mrna remaining at 10 µM (DNAJB1 equals Hsp40): 39% | mrna remaining at 10 µM (Hsp70): 36%

ΔTm at 12.5 µM [1, 5]: 2.1 °C | IC50 [2]: 3.18 µM
SMILES: O=C(Nc1ccc(F)cc1)Nc1ccc(Cl)c(S(=O)(=O)C(F)(F)F)c1 [Compound 54, 1-[4-chloro-3-(trifluoromethylsulfonyl)phenyl]-3-(4-fluorophenyl)urea]
mrna remaining at 10 µM (DNAJB1 equals Hsp40): 37% | mrna remaining at 10 µM (Hsp70): 23%

ΔTm at 25 µM [3]: 3.2 °C | ΔTm at 12.5 µM [1, 5]: 2.6 °C | IC50 [2]: 8.91 µM
SMILES: N#Cc1ccc(NC(=O)Nc2ccc(CCN3CCOCC3)c(S(=O)(=O)C(F)(F)F)c2)cc1 [Compound 289, 1-(4-cyanophenyl)-3-(4-(2-morpholinoethyl)-3-((trifluoromethyl)-sulfonyl)phenyl)urea]

ΔTm at 25 µM [3]: 0.49 °C | ΔTm at 12.5 µM [1, 5]: 0.2 °C | IC50 [2]: > 10 µM
SMILES: N#Cc1ccc(NC(=O)Nc2ccc(Cl)c(S(=O)(=O)C(F)(F)F)c2)c(OCCN2CCOCC2)c1 [Compound 299, 1-(4-chloro-3-((trifluoromethyl)sulfonyl)phenyl)-3-(4-cyano-2-(2-morpholinoethoxy)phenyl)urea]

ΔTm at 12.5 µM [1, 5]: -0.64 °C | IC50 [2]: 0.81 µM
SMILES: N#Cc1ccc(NC(=O)Nc2ccc3c(c2)S(=O)(=O)C=C3)nc1 [Compound 266, 1-(5-cyanopyridin-2-yl)-3-(1,1-dioxidobenzo[b]thiophen-6-yl)urea]
mrna remaining at 10 µM (DNAJB1 equals Hsp40): 93% | mrna remaining at 10 µM (Hsp70): 83%

ΔTm at 12.5 µM [1, 5]: 0.84 °C | IC50 [2]: 9.69 µM
SMILES: N#Cc1ccc(NC(=O)Nc2ccc3c(c2)S(=O)(=O)C=C3)cn1 [Compound 265, 1-(6-cyanopyridin-3-yl)-3-(1,1-dioxidobenzo[b]thiophen-6-yl)urea]
mrna remaining at 10 µM (DNAJB1 equals Hsp40): 77% | mrna remaining at 10 µM (Hsp70): 88%

ΔTm at 12.5 µM [1, 5]: 2.63 °C | IC50 [2]: 5.57 µM
SMILES: COc1cc(NC(=O)Nc2ccc(Cl)c([N+](=O)[O-])c2)ccc1C#N [Compound 241, 1-(4-chloro-3-nitrophenyl)-3-(4-cyano-3-methoxyphenyl)urea]

ΔTm at 25 µM [3]: 2.28 °C | ΔTm at 12.5 µM [1, 5]: 1 °C | IC50 [2]: > 10 µM
SMILES: N#Cc1ccc(NC(=O)Nc2ccc(Cl)c(S(=O)(=O)C(F)(F)F)c2)c(CCN2CCOCC2)c1 [Compound 298, 1-(4-chloro-3-((trifluoromethyl)sulfonyl)phenyl)-3-(4-cyano-2-(2-morpholinoethyl)phenyl)urea]

ΔTm at 12.5 µM [1, 5]: 0.1 °C | IC50 [2]: > 10 µM
SMILES: N#Cc1ccc(NC(=O)Nc2ccc3c(c2)C(=O)CC3)cc1 [Compound 283, 1-(4-cyanophenyl)-3-(3-oxo-2,3-dihydro-1H-inden-5-yl)urea]

ΔTm at 12.5 µM [1, 5]: 1.27 °C | IC50 [2]: 2.65 µM
SMILES: CC(C)(C)c1cc(NC(=O)Nc2ccc3c(c2)S(=O)(=O)C=C3)ccc1C#N [Compound 264, 1-(3-(tert-butyl)-4-cyanophenyl)-3-(1,1-dioxidobenzo[b]thiophen-6-yl)urea]

ΔTm at 12.5 µM [1, 5]: 0.39 °C | IC50 [2]: 7.79 µM
SMILES: N#Cc1cnc(NC(=O)Nc2ccc3c(c2)S(=O)(=O)C=C3)cn1 [Compound 268, 1-(5-cyanopyrazin-2-yl)-3-(1,1-dioxidobenzo[b]thiophen-6-yl)urea]

From patent US20240317727A1 (Duke University, priority 2018, published 2024)
